Assay results as given in patent US12564588B2, “HECT E3 ubiquitin liagase inhibitors and uses thereof” (Northwestern University, priority 2021, dated 2026).
pEC50, pIC50, pKi: −log10 of the molar value.

Tests used:
UBE3A [1] = molecular target: T1, UBE3A (Homo sapiens, UniProt Q05086); test: in vitro ubiquitination assay (polyubiquitination of S5A); type: biochemical; details: for pIC50: S5A polyubiquitination, varying concentrations, estimated / preliminary; for inhibition of UBE3A-mediated polyubiquitination of S5A: compound at 100 μM, western/immunoblot readout
T1 sequence (Q05086 24-875 limits assumed): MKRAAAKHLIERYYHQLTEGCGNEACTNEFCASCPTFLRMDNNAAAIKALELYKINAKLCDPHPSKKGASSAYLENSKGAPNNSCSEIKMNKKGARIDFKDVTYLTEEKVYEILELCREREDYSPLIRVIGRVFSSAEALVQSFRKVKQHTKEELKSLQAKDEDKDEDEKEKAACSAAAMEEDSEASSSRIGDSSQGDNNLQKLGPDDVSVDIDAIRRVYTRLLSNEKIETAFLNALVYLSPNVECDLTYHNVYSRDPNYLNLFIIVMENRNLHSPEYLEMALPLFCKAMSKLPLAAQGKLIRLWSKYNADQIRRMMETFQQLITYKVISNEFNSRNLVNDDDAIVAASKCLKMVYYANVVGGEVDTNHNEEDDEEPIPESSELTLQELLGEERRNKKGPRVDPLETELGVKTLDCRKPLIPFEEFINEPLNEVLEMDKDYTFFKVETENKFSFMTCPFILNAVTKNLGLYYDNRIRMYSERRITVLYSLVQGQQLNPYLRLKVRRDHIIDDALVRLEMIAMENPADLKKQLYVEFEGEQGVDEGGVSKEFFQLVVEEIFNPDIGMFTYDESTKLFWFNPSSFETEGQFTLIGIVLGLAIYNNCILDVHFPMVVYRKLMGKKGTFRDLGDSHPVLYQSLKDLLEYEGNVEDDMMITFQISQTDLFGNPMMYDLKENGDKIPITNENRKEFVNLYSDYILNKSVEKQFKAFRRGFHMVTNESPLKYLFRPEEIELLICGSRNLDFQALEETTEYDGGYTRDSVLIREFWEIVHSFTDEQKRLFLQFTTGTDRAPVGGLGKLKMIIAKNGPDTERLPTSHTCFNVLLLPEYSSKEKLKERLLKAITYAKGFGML
Description: FIG. 3A-B. Identification of a potential UBE3A inhibitor compound by in vitro ubiquitination assay. (A). Purified UBA1 (E1), UBE2L3 (E2) and UBE3A (E3) were pre-incubated with each compound at 100 uM, followed by incubation with purified ubiquitin (Ub) and S5A in the presence of ATP. […] NC, negative control without active UBE3A; PC, positive control with active UBE3A but with no small molecule. (B). Structure of #3 compound (Zinc 23375107).
FIG. 4A-B. Screening for compounds that are structurally analogous to #3 compound and could bind to the druggable hotspot of the UBE3A HECT domain. Left panel (A): Purified UBA1 (E1), UBE2L3 (E2) and UBE3A (E3) were pre-incubated with structural analogs of #3 compound at 100 μM, followed by incubation with purified ubiquitin (Ub) and S5A in the presence of ATP.
FIG. 5A-B. Inhibition of the E3 activity of UBE3A by various concentrations of compound #3 and #3-1. The UBE3A activity was assayed by the in vitro ubiquitination assay using S5A as a substrate and the indicated concentrations of compound #3 (A) or #3-1 (B). The polyubiquitinated forms of S5A were quantified by western analysis.
We purchased 35 compounds among the 46 hits identified by the initial virtual screen, and tested their abilities to modulate the ubiquitin ligase activity of UBE3A. The in vitro ubiquitination assay was developed using purified ubiquitin (Ub), Uba1 (E1), UbcH7/UBE2L3 (E2), UBE3A (E3), and S5A/Angiocidin/PSMD4 (substrate), as a modification of our previously reported assay (19). The purchased compounds were dissolved in DMSO to generate a stock solution at 10 mM, and then their effects on UBE3A activity were tested by adding each compound at a final concentration of 100 μM. E1, E2 and E3 enzymes were first pre-incubated at 37° C. for 30 min in a buffer containing MgCl2, ATP and each compound. Subsequently, ubiquitin and S5A were added to the reaction and incubated for 60 more minutes. Samples were then analyzed by SDS-PAGE and immunoblotting, and polyubiquitination of the substrate S5A was determined as specific appearance of forms of anti-S5A immunoreactivity at higher molecular weights.

HeLa cells = test: cytotoxicity in HPV-positive cervical cancer cells (alamarBlue cell viability); type: cell-based; details: Homo sapiens, 72 hrs incubation
Description: FIG. 7. Cytotoxicity of the hit compound #3-1 in HPV-positive cervical cancer cells. HPV18-positive human cervical cancer HeLa cells were incubated for 72 hrs with the compound #3-1 at the indicated concentrations, followed by determination of cell viability by the alamarBlue™ HS Cell Viability Reagent (Thermo). Data are shown as means±SEM, and the EC50 is estimated to be 30 μM.
We have recently tested whether the compound #3.1 exert any cytotoxic action in HPV-positive cancer cells. Human cervical carcinoma HeLa cells are a widely used HPV18-positive cell lines. We incubated HeLa cells with the compound #3.1 at various concentrations for 72 hours and determined viability of the cells (FIG. 7). This study has shown that the compound #3.1 exerts cytotoxicity in a dose-dependent manner with EC50 at 30 μM.

[2] = molecular target: T2, recombinant UBE3A HECT domain (Homo sapiens, UniProt Q05086); test: fluorescence thermal shift analysis (FTS); type: binding; details: 0.5 uM UBE3A, Hepes buffer pH7.5, Tm shifted to lower temperature
T2 construct: a truncated UBE3A protein (residues 495-852 of isoform 1) using E. coli; made in house; host or cells: E. coli
T2 sequence (Q05086 518-875): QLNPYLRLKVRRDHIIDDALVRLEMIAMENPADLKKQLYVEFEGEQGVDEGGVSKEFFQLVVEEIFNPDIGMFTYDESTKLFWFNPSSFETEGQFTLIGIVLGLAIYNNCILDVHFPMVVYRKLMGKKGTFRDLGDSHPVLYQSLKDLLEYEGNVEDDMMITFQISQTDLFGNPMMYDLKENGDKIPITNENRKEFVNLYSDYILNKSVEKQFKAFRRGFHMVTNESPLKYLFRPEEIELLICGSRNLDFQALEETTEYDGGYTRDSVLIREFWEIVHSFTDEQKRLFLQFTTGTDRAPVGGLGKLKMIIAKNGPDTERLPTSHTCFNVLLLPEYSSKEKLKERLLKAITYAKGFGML
Text: FIG. 6A-B. Fluorescence thermal shift analysis of recombinant UBE3A HECT domain with the compound #3-1. (A) Melting curves of recombinant UBE3A HECT domain with multiple concentrations of #3-1 show the melting temperature Tm was shifted to lower temperature progressively with increase in #3-1 concentration. The rise of pre-transition background reading indicates destabilizing of the protein by the small molecule inhibitor, which is consists with the decrease of Tm by the compound. (B) Plot of normalized melting curves with respect to compound concentrations. The compound #3-1 shifts the melting temperature in a significant fashion, indicating specific binding. For example, the Tm is shifted 2.5 degree by 15 uM #3-1 and 5.1 degree by 25 uM #3-1 from the reference value. The test was done with 0.5 uM UBE3A in Hepes buffer (20 mM Hepes, 150 mM NaCl, pH7.5).
To verify the physical interaction between the HECT domain of UBE3A and the identified compounds and also develop a high throughput assay for further screening, we have developed a fluorescence thermal shift analysis (FTS). we have prepared a truncated UBE3A protein (residues 495-852 of isoform 1) using E. coli and performed preliminary FTS test (FIG. 6). […] Small molecule binding affects protein thermal stability, therefore can be detected through a shift in protein's thermal denaturation (melting) temperature (Tm).

UBE3A [3] = molecular target: T1, UBE3A; details: blocks UBE3A oligomerization by substituting Phe727; cited from earlier work

Row | SMILES | pIC50 (UBE3A [1]) | inhibition of UBE3A-mediated polyubiquitination of S5A (UBE3A [1]) | inhibition of UBE3A-mediated polyubiquitination of S5A (UBE3A [1]; listed as Zinc 23375107) | pEC50 (HeLa cells) | inhibition of UBE3A-mediated polyubiquitination of S5A (UBE3A [1]; listed as #3.1) | Tm shift from the reference value ([2]; 15 uM compound) | Tm shift from the reference value ([2]; 25 uM compound) | pKi (UBE3A [3])
1 | COc1ccc(CNCC2CCOCC2)c(OCC(O)CN2CCN(C)CC2)c1 (stereo not shown) [#3, 1-(5-methoxy-2-{[(tetrahydro-2H-pyran-4-ylmethyl)amino]methyl}phenoxy)-3-(4-methyl-1-piperazinyl)-2-propanol] | ~4.00 | inhibited formation of PolyUb-S5A | significantly inhibits polyubiquitination of S5A | – | – | – | – | –
2 | COc1ccc(CNCc2cccc(C)c2)c(OCC(O)CN2CCN(C)CC2)c1 (stereo not shown) [#3-1, 1-(5-methoxy-2-{[(3-methylbenzyl)amino]methyl}phenoxy)-3-(4-methyl-1-piperazinyl)-2-propanol] | ~5.00 | capable of inhibiting the UBE3A-mediated polyubiquitination of S5A substrate | – | 4.52 | inhibited formation of PolyUb-S5A | 2.5 degree | 5.1 degree | –
3 | CC(=O)N[C@@H](Cc1ccccc1)C(=O)O [N-acetyl phenylalanine] | – | – | – | – | – | – | – | 1.92
